Test results as given in US9051299B2, “Imidazolyl methyl piperidine T-type calcium channel antagonists” (Merck Sharp & Dohme Corp., priority 2012, dated 2015).
pIC50: −log10 of the molar value.

What was measured:
[1] = target: T1, T-type calcium channel A1i (alpha-1I, CaV 3.3) (Homo sapiens, UniProt Q9P0X4); assay: FLIPR Ca2+ Flux Assay, hyperpolarized state; assay type: cell-based; conditions: measure of the ability to inhibit T-type calcium channel, read-out: Ali Hyperpolarized
T1 construct: expressed in transfected cells; host or cells: HEK 293 cells, tetracycline-inducible expression (Zeocin/Blasticidin selection)

[2] = target: T1, T-type calcium channel A1i (alpha-1I, CaV 3.3); assay: FLIPR Ca2+ Flux Assay, depolarized state; assay type: cell-based; conditions: measure of the ability to inhibit T-type calcium channel

T1 sequence (Q9P0X4 whole entry): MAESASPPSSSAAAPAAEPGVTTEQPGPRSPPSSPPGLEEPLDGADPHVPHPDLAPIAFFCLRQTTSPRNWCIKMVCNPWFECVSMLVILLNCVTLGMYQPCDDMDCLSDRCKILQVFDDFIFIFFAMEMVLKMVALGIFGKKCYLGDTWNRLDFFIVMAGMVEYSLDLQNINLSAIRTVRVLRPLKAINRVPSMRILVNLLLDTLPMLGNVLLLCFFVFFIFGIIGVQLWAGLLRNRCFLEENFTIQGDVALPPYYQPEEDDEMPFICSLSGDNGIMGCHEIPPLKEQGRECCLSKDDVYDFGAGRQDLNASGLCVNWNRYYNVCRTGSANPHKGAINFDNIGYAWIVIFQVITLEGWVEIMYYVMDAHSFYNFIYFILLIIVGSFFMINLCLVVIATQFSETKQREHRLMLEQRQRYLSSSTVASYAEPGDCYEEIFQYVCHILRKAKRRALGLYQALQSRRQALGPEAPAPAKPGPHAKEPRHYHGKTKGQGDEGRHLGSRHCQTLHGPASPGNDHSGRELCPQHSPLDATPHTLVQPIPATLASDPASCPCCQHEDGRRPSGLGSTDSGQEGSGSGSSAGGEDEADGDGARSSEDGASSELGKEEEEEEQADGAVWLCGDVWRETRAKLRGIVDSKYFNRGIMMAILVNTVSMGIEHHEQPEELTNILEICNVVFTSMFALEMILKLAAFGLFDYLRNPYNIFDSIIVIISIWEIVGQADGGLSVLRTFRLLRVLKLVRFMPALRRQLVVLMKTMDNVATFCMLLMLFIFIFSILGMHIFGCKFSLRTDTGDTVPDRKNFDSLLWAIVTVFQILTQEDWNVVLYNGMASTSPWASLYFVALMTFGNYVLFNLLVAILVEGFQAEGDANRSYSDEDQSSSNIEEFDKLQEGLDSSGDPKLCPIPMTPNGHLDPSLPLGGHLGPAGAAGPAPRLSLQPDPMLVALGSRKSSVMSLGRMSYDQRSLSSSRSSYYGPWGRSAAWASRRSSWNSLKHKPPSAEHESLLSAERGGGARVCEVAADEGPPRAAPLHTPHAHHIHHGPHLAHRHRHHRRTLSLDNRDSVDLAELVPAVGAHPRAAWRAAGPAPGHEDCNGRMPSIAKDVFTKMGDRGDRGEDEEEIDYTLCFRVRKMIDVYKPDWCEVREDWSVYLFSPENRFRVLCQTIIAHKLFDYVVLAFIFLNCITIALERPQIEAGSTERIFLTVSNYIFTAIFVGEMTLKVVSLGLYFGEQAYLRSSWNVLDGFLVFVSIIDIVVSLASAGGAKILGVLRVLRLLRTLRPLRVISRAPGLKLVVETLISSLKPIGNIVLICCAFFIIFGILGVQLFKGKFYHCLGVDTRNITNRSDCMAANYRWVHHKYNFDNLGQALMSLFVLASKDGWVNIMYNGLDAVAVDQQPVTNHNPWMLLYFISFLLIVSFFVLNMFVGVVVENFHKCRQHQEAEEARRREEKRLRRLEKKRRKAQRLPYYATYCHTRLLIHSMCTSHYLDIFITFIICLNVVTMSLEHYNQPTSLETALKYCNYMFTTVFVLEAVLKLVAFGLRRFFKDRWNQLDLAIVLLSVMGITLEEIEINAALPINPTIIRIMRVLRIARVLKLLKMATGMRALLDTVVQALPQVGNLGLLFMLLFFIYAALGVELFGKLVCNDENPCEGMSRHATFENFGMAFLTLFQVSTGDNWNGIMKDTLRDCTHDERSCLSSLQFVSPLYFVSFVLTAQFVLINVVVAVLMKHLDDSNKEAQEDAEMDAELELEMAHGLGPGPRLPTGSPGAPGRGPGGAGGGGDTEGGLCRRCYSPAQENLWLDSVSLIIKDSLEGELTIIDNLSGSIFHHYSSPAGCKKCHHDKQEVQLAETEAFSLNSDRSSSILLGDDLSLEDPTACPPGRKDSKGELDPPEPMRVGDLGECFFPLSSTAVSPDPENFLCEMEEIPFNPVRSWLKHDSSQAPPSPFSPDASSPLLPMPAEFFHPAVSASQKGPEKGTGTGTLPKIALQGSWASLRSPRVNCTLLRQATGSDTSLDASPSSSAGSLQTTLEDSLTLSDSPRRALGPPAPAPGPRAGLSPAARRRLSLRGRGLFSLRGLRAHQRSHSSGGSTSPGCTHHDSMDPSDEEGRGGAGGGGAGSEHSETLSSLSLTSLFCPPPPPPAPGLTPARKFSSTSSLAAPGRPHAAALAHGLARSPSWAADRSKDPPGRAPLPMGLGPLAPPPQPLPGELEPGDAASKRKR

| Compound | pIC50 [1] | pIC50 [2] |
| --- | --- | --- |
| O=C(c1cccc(C(F)(F)F)c1)C1CCN(Cc2cnc(-c3ccccc3)[nH]2)CC1 [Example 1, (1-((2-Phenyl-1H-imidazol-5-yl)methyl)piperidin-4-yl)(3-(trifluoromethyl)phenyl)-methanone] | 7.15 | 6.13 |
| O=C(c1ccc(F)cc1)C1CCN(Cc2c[nH]c(-c3ccccc3)n2)CC1 [Example 2] | 6.62 | 5.50 |
| O=C(c1ccc2nonc2c1)C1CCN(Cc2c[nH]c(-c3ccccc3)n2)CC1 [Example 4, 2,1,3-benzoxadiazol-5-yl-[1-[(2-phenyl-1H-imidazol-4-yl)methyl]-4-piperidyl]methanone] | 6.81 | 5.54 |
| COc1ccc(C(=O)C2CCN(Cc3c[nH]c(-c4ccccc4)n3)CC2)cc1 [Example 6, (4-methoxyphenyl)-[1-[(2-phenyl-1H-imidazol-4-yl)methyl]-4-piperidyl]methanone] | 5.98 | < 5.00 |
| Cc1ccc(C(=O)C2CCN(Cc3c[nH]c(-c4ccccc4)n3)CC2)cc1 [Example 7, [1-[(2-phenyl-1H-imidazol-4-yl)methyl]-4-piperidyl]-(p-tolyl)methanone] | 6.19 | 5.15 |
| Cc1nc(CN2CCC(C(=O)c3cccc(C(F)(F)F)c3)CC2)c[nH]1 [Example 9, [1-[(2-methyl-1H-imidazol-4-yl)methyl]-4-piperidyl]-[3-(trifluoromethyl)phenyl]methanone] | 5.12 | < 5.00 |
| CCc1nc(C)c(CN2CCC(C(=O)c3cccc(C(F)(F)F)c3)CC2)[nH]1 [Example 10, [1-[(2-ethyl-4-methyl-1H-imidazol-5-yl)methyl]-4-piperidyl]-[3-(trifluoromethyl)phenyl]methanone] | 5.16 | < 5.00 |

Further lines, results first:

| pIC50 [1] | pIC50 [2] | Compound |
| --- | --- | --- |
| 6.89 | 5.68 | O=C(c1cccc(Cl)c1)C1CCN(Cc2c[nH]c(-c3ccccc3)n2)CC1 [Example 3, (3-chlorophenyl)-[1-[(2-phenyl-1H-imidazol-4-yl)methyl]-4-piperidyl]methanone] |
| 6.16 | 5.39 | O=C(c1ccc(F)c(F)c1)C1CCN(Cc2c[nH]c(-c3ccccc3)n2)CC1 [Example 5, (3,4-difluorophenyl)-[1-[(2-phenyl-1H-imidazol-4-yl)methyl]-4-piperidyl]methanone] |
| 6.50 | 5.34 | Cc1cccc(C(=O)C2CCN(Cc3c[nH]c(-c4ccccc4)n3)CC2)c1 [Example 8, m-tolyl-[1-[(2-phenyl-1H-imidazol-4-yl)methyl]-4-piperidyl]methanone] |
